{"source": "patent US9693982B2", "about": "“Composition for amelioration of hypoalbuminemia” (OTSUKA PHARMACEUTICAL FACTORY, INC., priority 2010, dated 2017)", "test_system": "albumin mRNA", "assay": "Albumin mRNA expression of cultured human hepatocytes (Experiment 1, real time RT-PCR)", "format": "cell-based", "conditions": "for Expression level of albumin mRNA (mean ± SD): 24 hours after addition, ratio based on HPRT1 mRNA (regarded as 1), human hepatocytes Lot 100, triplicate; for Effect on albumin mRNA expression level (in words): human hepatocytes, 20 mM, 60 mM", "procedure": "In this test, human primary cultured hepatocytes were cultured by each test solution to check a change of albumin mRNA expressional potency and a change of secretion level of albumin. The test was performed as follows.\nAlbumin mRNA and HPRT1 mRNA were measured. The nucleotide sequences of albumin and HPRT1 are registered in the GenBank as follows and each nucleotide sequence follows the sequence registered.\nNote that, HPRT1, which is a house keeping gene serving as a control, was measured in the same test. The sequences of primers and probes used in measurement of albumin are made public in Nishimura, M., Yoshitsugu, H., Yokoi, T., Tateno, C., Kataoka, M., Horie, T., Yoshizato, K. and Naito, S.: Evaluation of mRNA expression of human drug-metabolizing enzymes and transporters in chimeric mouse with humanized liver. Xenobiotica, 35: 877-890 (2005). Furthermore, the sequences of primers and probes used in measurement of HPRT1 are made public in Nishimura, M., Naito, S. and Yokoi, T.: Tissue-specific mRNA expression profiles of human nuclear receptor subfamilies. Drug Metab. Pharmacokinet., 19: 135-149 (2004).\nFurthermore, mRNA was quantified by use of the primer pairs and probe represented by individual sequences (the position of initiation codon follows the each nucleotide sequence registered) shown in the following Table 1 and in accordance with RT-PCR (Real-time quantitative reverse transcription-polymerase reaction). Each of the primers and probe was prepared by an automatic DNA synthesizer.\nAs the test solution of the Livact composition, a Livact composition was dissolved such that the concentrations of Ile, Leu, and Val became 13.8 mM, 27.7 mM, and 18.5 mM, respectively after blending (60 mM as the concentration of the Livact composition test solution). Note that, in the dissolution procedure, a Livact composition was dissolved in Buffer A and then a medium was added in an amount 1/10 as low as that of Buffer A.\nAs an Ile, Leu or Val solution, Ile, Leu or Val was dissolved so as to have a concentration of 60 mM. Note that, in the dissolution procedure, Ile, Leu or Val was dissolved in Buffer A and then a medium was added in an amount 1/10 as low as that of Buffer A.\nThe Livact composition test solution prepared in Section (2-3) and Ile, Leu or Val solution prepared in Section (2-4) were diluted 3 fold with Buffer B to prepare a 20 mM solution.\nAccording to a method of Nishimura et al. (Nishimura, M., Yoshitsugu, H., Naito, S. and Hiraoka, I.: Evaluation of gene induction of drug-metabolizing enzymes and transporters in primary culture of human hepatocytes using high-sensitivity real-time reverse transcription PCR. Yakugaku Zasshi, 122: 339-361 (2002)), 1×10^5 cells/400 μL was dispensed in each well of a 24 well plate and cultured in a CO2 incubator. After 3 hours, medium exchange was performed. Further after 21 hours (24 hours after inoculation), medium exchange was performed. Thereafter, the medium was exchanged every 24 hours. Note that, the amount of liquid medium to be exchanged was set at 400 μL/well. Furthermore, exchange to each test solution was performed at the after 48 hours at which medium exchange was performed.\nAfter human hepatocytes (1×10^5 viable cells/0.4 mL/well) were inoculated, medium exchange was performed 3 hours and 24 hours after inoculation. Note that, the viability at the inoculating time was 90.4% (Lot 100). Then, 48 hours after inoculation, a test substance was added and 24 hours after addition of the test substance was initiated, Total RNA was extracted (using Rneasy Mini Kit). Quantification of mRNA of albumin and HPRT1 was performed by real time RT-PCR. Note that, HPRT1, which is a house keeping gene, was used as an internal standard.\nAfter the medium was suctioned, Total RNA was extracted by use of QIA shredder and Rneasy Mini Kit. Now, a preparation method using the Kit will be described below. […]", "data": [{"smiles": "CC[C@H](C)[C@H](N)C(=O)O", "note": "[Ile, Isoleucine]", "values": [{"measurement": "Expression level of albumin mRNA (mean ± SD)", "setting": "20 mM total test substance", "value": "174 ± 33"}, {"measurement": "Expression level of albumin mRNA (mean ± SD)", "setting": "60 mM total test substance", "value": "222 ± 27"}, {"measurement": "Effect on albumin mRNA expression level (in words)", "value": "increases in an additive manner"}]}, {"smiles": "CC(C)C[C@H](N)C(=O)O", "note": "[Leu, Leucine]", "values": [{"measurement": "Expression level of albumin mRNA (mean ± SD)", "setting": "20 mM total test substance", "value": "215 ± 63"}, {"measurement": "Expression level of albumin mRNA (mean ± SD)", "setting": "60 mM total test substance", "value": "255 ± 53"}, {"measurement": "Effect on albumin mRNA expression level (in words)", "value": "increases in an additive manner"}]}, {"smiles": "CC(C)[C@H](N)C(=O)O", "note": "[Val, Valine, reference compound]", "values": [{"measurement": "Expression level of albumin mRNA (mean ± SD)", "setting": "20 mM total test substance", "value": "127 ± 17"}, {"measurement": "Expression level of albumin mRNA (mean ± SD)", "setting": "60 mM total test substance", "value": "118 ± 10"}]}]}
